Results published in patent US7863449B2, “Modulators of muscarinic receptors” (Vertex Pharmaceuticals Incorporated, priority 2004, dated 2011).
Structures can show the parent of a compound that is named as a salt.

What was measured:
M4 muscarinic receptor = molecular target: T1, M4 muscarinic receptor (Homo sapiens, UniProt P08173); experiment: Functional mobilization of intracellular calcium (FLIPR), M4-CHO cells; assay type: cell-based; details: for Emax: 100% efficacy is the maximum response obtained using Carbachol as a control; for M4 Activity: M4-CHO cells, FLIPR calcium mobilization
T1 construct: expressed in transfected cells; host or cells: CHO (M4-CHO)
T1 sequence (P08173 1-479): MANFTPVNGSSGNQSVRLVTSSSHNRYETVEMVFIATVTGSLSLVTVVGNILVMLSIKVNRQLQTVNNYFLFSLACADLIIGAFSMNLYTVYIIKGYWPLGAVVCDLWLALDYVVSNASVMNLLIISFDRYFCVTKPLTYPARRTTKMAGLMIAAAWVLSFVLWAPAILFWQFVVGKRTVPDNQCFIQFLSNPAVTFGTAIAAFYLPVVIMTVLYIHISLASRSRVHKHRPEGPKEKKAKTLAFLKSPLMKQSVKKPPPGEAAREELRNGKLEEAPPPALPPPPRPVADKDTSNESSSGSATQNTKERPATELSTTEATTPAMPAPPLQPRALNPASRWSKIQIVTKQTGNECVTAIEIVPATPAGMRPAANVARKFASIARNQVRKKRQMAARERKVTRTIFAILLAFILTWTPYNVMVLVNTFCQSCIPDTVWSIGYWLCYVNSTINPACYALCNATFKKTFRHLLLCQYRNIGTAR
How it was run: (§1)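 Calcium flux recorded 60 s (ex 488, em 540 nm) in dye-loaded M1- or M4-CHO cells in pH 7.4 buffer with 1 mM probenecid. Inhibition measured against carbachol EC80 after 15 min compound pre-incubation or co-addition; agonism measured by compound addition alone. Final DMSO 0.5%.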

M1 muscarinic receptor = molecular target: T2, M1 muscarinic receptor (Homo sapiens, UniProt P11229); experiment: Functional mobilization of intracellular calcium (FLIPR), M1-CHO cells; assay type: cell-based; details: for Emax: 100% efficacy is the maximum response obtained using Carbachol as a control; for M1 Activity: M1-CHO cells, FLIPR calcium mobilization
T2 construct: expressed in transfected cells; host or cells: CHO (M1-CHO)
T2 sequence (P11229 1-460): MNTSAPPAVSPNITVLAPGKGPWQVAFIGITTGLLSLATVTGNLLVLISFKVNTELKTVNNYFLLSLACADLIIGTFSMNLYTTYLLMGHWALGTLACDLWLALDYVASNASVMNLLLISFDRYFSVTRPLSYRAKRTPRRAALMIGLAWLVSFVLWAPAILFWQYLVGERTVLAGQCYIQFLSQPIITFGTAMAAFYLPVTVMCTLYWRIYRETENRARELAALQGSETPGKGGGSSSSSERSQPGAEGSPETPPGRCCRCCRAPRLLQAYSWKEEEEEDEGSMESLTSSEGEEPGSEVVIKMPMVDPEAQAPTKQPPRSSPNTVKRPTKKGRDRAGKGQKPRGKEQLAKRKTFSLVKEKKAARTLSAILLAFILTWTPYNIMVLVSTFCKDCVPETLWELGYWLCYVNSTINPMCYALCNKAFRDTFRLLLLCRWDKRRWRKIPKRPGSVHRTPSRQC
How it was run: as §1

SMILES	Emax (M4 muscarinic receptor)	M4 Activity (M4 muscarinic receptor)	Emax (M1 muscarinic receptor)	M1 Activity (M1 muscarinic receptor)
CCOC(=O)N1CCC(N2CCC3(CC2)CN(C(=O)OC2CCC2)Cc2ccccc23)CC1 [compound 202]	25 to 100%	+++ (activity was measured to be less than 1.0 μM)	25 to 100%	+++ (activity was measured to be less than 1.0 μM)
CCOC(=O)N1C2CCC1CC(N1CCC3(CC1)CN(C(=O)c1sc(C)nc1C)Cc1ccccc13)C2 (stereo not drawn) [compound 203]	25 to 100%	+++ (activity was measured to be less than 1.0 μM)	25 to 100%	+++ (activity was measured to be less than 1.0 μM)
CCOC(=O)N1CCC(N2CCC3(CC2)CN(C(=O)N(C)C)Cc2ccccc23)CC1 [compound 204]	25 to 100%	+++ (activity was measured to be less than 1.0 μM)	25 to 100%	+++ (activity was measured to be less than 1.0 μM)
CCOC(=O)N1C2CCC1CC(N1CCC3(CC1)CN(S(=O)(=O)c1ccc(F)cc1)Cc1ccccc13)C2 (stereo not drawn) [compound 205, Ethyl 3-(2-(4-fluorophenylsulfonyl)-2,3-dihydro-1H-spiro-[isoquinoline-4,4′-piperidine]-1′-yl)-8-azabicyclo[3.2.1]-octane-8-carboxylate hydrochloride]	25 to 100%	+++ (activity was measured to be less than 1.0 μM)	25 to 100%	+++ (activity was measured to be less than 1.0 μM)
COC(=O)N1Cc2ccccc2C2(CCN(C3CC4CCC(C3)N4C(=O)OC(C)C)CC2)C1 (stereo not drawn) [compound 206]	25 to 100%	+++ (activity was measured to be less than 1.0 μM)	25 to 100%	+++ (activity was measured to be less than 1.0 μM)
COCCOC(=O)N1CCC(CN2CCC3(CC2)CN(C(C)=O)Cc2ccccc23)CC1 [compound 207]	25 to 100%	++ (activity was measured to be from 1.0 μM to 5.0 μM)	25 to 100%	+ (activity was measured to be greater than 5.0 μM)
CCOC(=O)N1CCC(CN2CCC3(CC2)CN(C(=O)C2CC2)Cc2ccccc23)CC1 [compound 208]	25 to 100%	+++ (activity was measured to be less than 1.0 μM)	25 to 100%	+++ (activity was measured to be less than 1.0 μM)
CCOC(=O)N1CCC(N2CCC3(CC2)CN(C(=O)CC(F)(F)F)Cc2ccccc23)CC1 [compound 209]	25 to 100%	+++ (activity was measured to be less than 1.0 μM)	25 to 100%	+++ (activity was measured to be less than 1.0 μM)
Cc1cc(C(=O)N2Cc3ccccc3C3(CCN(C4CC5CCC(C4)N5C(=O)O[C@@H]4CCOC4)CC3)C2)nn1C (stereo partly drawn) [compound 210]	25 to 100%	+++ (activity was measured to be less than 1.0 μM)	25 to 100%	+++ (activity was measured to be less than 1.0 μM)
CCOC(=O)N1CCC(N2CCC3(CC2)CN(C(=O)N2CCCCC2)Cc2ccccc23)CC1 [compound 211]	< 25%	+ (activity was measured to be greater than 5.0 μM)	25 to 100%	+++ (activity was measured to be less than 1.0 μM)
O=C(OC1CCC1)N1Cc2ccccc2C2(CCN(C3CC4CCC(C3)N4C(=O)O[C@H]3CCOC3)CC2)C1 (stereo partly drawn) [compound 212]		+++ (activity was measured to be less than 1.0 μM)		+++ (activity was measured to be less than 1.0 μM)
